Values quoted from earlier work in US20250312278A1, “BRIVARACETAM PHARMACEUTICAL COMPOSITION, PREPARATION METHOD THEREFOR AND USE THEREOF” (SHANGHAI BOCIMED PHARMACEUTICAL CO., LTD., priority 2020, published 2025).
≈ marks a conversion by molar mass, not a printed value. Where two headings read alike, the source gives them in different places.

Assays:
[1] = in vivo

In the case of `CCC[C@@H]1CC(=O)N(C(CC)C(N)=O)C1` (stereo partly drawn) [Brivaracetam, (2S)-2-[(4R)-2-oxo-4-propyltetrahydron-1H-pyrro-1-yl] butanamide], the solubility (buffer solution with a pH of 4.5) is given as 850 mg/mL (≈ 4000 mM), the solubility (buffer solution with a pH of 7.4) is given as 840 mg/mL (≈ 3960 mM) and the solubility (hydrochloric acid solution with a pH of 1.2) is given as 850 mg/mL (≈ 4000 mM). The solubility (water) was 700 mg/mL (≈ 3300 mM) and the terminal half-life period [1] was 9 h.
